{
  "source": "patent US5219740A",
  "about": "“Retroviral gene transfer into diploid fibroblasts for gene therapy” (Fred Hutchinson Cancer Research Center, priority 1987, dated 1993)",
  "key": {"NIH 3T3": {"test_system": "NIH 3T3", "test": "Drug concentration needed for complete cell killing", "format": "cell-based, mouse", "details": "for Drug Concentrations Needed For Complete Cell Killing: Mouse NIH 3T3, scored after 10 days", "procedure": "(§1) Three drugs were tested for their ability to kill human diploid fibroblasts (HDF): the neomycin analogue G418, Hygromycin-B (Hygro), and Methotrexate (Mtx). Four HDF lines were isolated from skin biopsies of normal human donors: HDF 78-18, from a […] fetus; HDF 1-85, from newborn foreskin; HDF 79-81, from a person; and HDF 72-46, from a person. The four fibroblast lines were isolated using standard methods (Meth. Cell Biol. 219:255-276, 1980, hereby incorporated by reference) and were maintained in culture for 22 to 31 population doublings using Dulbecco-Vogt Modified Eagles Medium (D MEM) supplemented with 10% fetal bovine serum (FBS). NIH 3T3 immortalized mouse fibroblasts served as a control.\n(§2) Cells were seeded at 10^4 per 3.5-cm dish in D MEM plus 10% FBS and drug, except for Mtx selection where 10% dialyzed FBS was used. Drug-resistant cells were scored after 10 days."}, "[1]": {"test_system": "human diploid fibroblast cell lines", "test": "Drug killing, summary over HDF lines", "format": "cell-based", "procedure": "as §1, §2"}, "HDF 78-18": {"test_system": "HDF 78-18", "test": "Drug concentration needed for complete cell killing", "format": "cell-based, human", "details": "for Drug Concentrations Needed For Complete Cell Killing: Fetal HDF 78-18, scored after 10 days", "procedure": "as §1, §2"}, "HDF 72-46": {"test_system": "HDF 72-46", "test": "Drug concentration needed for complete cell killing", "format": "cell-based, human", "details": "Adult HDF 72-46, scored after 10 days", "procedure": "as §1, §2"}, "HDF 79-81": {"test_system": "HDF 79-81", "test": "Drug concentration needed for complete cell killing", "format": "cell-based, human", "details": "Adult HDF 79-81, scored after 10 days", "procedure": "as §1, §2"}, "HDF 1-85": {"test_system": "HDF 1-85", "test": "Drug concentration needed for complete cell killing", "format": "cell-based, human", "details": "Newborn HDF 1-85, scored after 10 days", "procedure": "as §1, §2"}, "SF03 cells": {"test_system": "SF03 cells", "test": "Adenosine killing of ADA-deficient fibroblasts", "format": "cell-based, human", "source_text": "(§3) Referring to FIG. 5, the ADA vector LNSAL was made by inserting an ADA cDNA (Valerio, D., et al., Gene 31:147-153, 1984) linked to a SV40 early region enhancer/promoter downstream of the neo gene in N2. Helper-free virus was made by introduction of LNSAL into PA317 amphotropic retrovirus-packaging cells (ATCC No. CRL 9078), as described in Mol. Cell. Biol. 6:2895-2902, 1986, hereby incorporated by reference. […] Using either G418 or adenosine, the expression of either neo and the ADA gene was assayed in LNSAL-infected cells."}, "[2]": {"test_system": "normal human diploid fibroblasts", "test": "Adenosine effect on normal fibroblasts", "format": "cell-based", "details": "2 mM", "source_text": "as §3"}},
  "data": [
    {"smiles": "CN(Cc1cnc2nc(N)nc(N)c2n1)c1ccc(C(=O)N[C@@H](CCC(=O)O)C(=O)O)cc1", "note": "[Mtx, Methotrexate]", "values": [
      {"measurement": "Drug Concentrations Needed For Complete Cell Killing", "setting": "NIH 3T3; 10% dialyzed FBS", "result": 0.1, "unit": "µM"},
      {"measurement": "concentration that efficiently killed the cells", "setting": "NIH 3T3; NIH 3T3 cells", "result": "10^-7 M"},
      {"measurement": "colony formation at the highest concentration of Mtx used", "setting": "[1]; all HDF lines with the exception of HDF 78-18", "result": "formed colonies"},
      {"measurement": "concentration to which the cell lines were resistant to killing", "setting": "[1]; human diploid fibroblast cell lines", "result": "> 10^-5 M"},
      {"measurement": "concentration to which the cell lines were resistant to killing", "setting": "[1]; most human diploid fibroblast cell lines", "result": "more than 10^-3 M"},
      {"measurement": "Drug Concentrations Needed For Complete Cell Killing", "setting": "HDF 78-18; 10% dialyzed FBS", "result": "> 1000", "unit": "µM"},
      {"measurement": "colony formation at the highest concentration of Mtx used", "setting": "HDF 78-18; HDF 78-18, viable cells remained after 15 days of selection", "result": "did not form colonies"},
      {"measurement": "Drug Concentrations Needed For Complete Cell Killing", "setting": "HDF 72-46; 10% dialyzed FBS", "result": "> 1000", "unit": "µM"},
      {"measurement": "Drug Concentrations Needed For Complete Cell Killing", "setting": "HDF 79-81; 10% dialyzed FBS", "result": "> 10", "unit": "µM"},
      {"measurement": "Drug Concentrations Needed For Complete Cell Killing", "setting": "HDF 1-85; 10% dialyzed FBS", "result": "> 1000", "unit": "µM"}
    ]},
    {"smiles": "CNC1C(O)C(OC2C(N)CC(N)C(OC3OC(C(C)O)C(O)C(O)C3N)C2O)OCC1(C)O", "note": "(centres unmarked) [Vector G418]", "values": [
      {"measurement": "Drug Concentrations Needed For Complete Cell Killing", "setting": "NIH 3T3; weight of dry powder", "result": 1000, "unit": "µg/mL"},
      {"measurement": "Drug Concentrations Needed For Complete Cell Killing", "setting": "HDF 78-18; weight of dry powder", "result": 500, "unit": "µg/mL"},
      {"measurement": "Drug Concentrations Needed For Complete Cell Killing", "setting": "HDF 72-46; weight of dry powder", "result": 500, "unit": "µg/mL"},
      {"measurement": "Drug Concentrations Needed For Complete Cell Killing", "setting": "HDF 79-81; weight of dry powder", "result": 1000, "unit": "µg/mL"},
      {"measurement": "Drug Concentrations Needed For Complete Cell Killing", "setting": "HDF 1-85; weight of dry powder", "result": 500, "unit": "µg/mL"}
    ]},
    {"smiles": "Nc1ncnc2c1ncn2[C@@H]1O[C@H](CO)[C@@H](O)[C@H]1O", "note": "[adenosine]", "values": [
      {"measurement": "concentration that kills the cells", "setting": "SF03 cells", "result": 2, "unit": "mM"},
      {"measurement": "effect on the cells", "setting": "[2]", "result": "no effect"}
    ]}
  ]
}
